Experimental data from ChEMBL document CHEMBL4622850, “Discovery and optimization of new oxadiazole substituted thiazole RORγt inverse agonists through a bioisosteric amide replacement approach” (Bioorg Med Chem Lett, 2020).
Values after ≈ are worked out from the molar mass of the structure shown.

How the values were obtained:
[1] = Solubility of compound by pH 2; format: physicochemical; details: buffer
[2] = Solubility of compound by pH 7; format: physicochemical; details: buffer
[3] = target: T1, Nuclear receptor ROR-gamma (Mus musculus, UniProt P51450); experiment: Inverse agonist activity at RORgammat in mouse whole blood assessed as reduction in IL-17a production; format: tissue-based
T1 sequence (P51450 whole entry): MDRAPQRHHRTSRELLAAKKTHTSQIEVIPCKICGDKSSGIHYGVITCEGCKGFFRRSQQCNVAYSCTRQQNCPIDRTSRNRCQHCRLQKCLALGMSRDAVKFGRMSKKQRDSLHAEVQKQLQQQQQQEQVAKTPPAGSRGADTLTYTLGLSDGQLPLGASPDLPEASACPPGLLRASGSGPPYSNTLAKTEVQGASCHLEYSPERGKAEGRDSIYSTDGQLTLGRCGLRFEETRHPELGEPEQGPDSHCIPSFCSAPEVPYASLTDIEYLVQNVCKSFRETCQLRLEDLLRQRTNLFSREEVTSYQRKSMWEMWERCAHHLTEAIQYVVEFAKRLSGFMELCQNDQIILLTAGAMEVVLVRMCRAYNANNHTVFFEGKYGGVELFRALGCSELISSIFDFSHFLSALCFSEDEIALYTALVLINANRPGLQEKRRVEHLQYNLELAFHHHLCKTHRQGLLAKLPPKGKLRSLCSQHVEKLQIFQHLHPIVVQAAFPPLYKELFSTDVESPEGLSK

[4] = Metabolic stability in rat liver microsomes assessed as half life; format: ADME, Microsome
[5] = target: T2, Nuclear receptor ROR-beta (Homo sapiens, UniProt Q92753); experiment: Binding affinity to RORbeta (unknown origin) assessed as dissociation constant by thermal shift binding assay
T2 sequence (Q92753 whole entry): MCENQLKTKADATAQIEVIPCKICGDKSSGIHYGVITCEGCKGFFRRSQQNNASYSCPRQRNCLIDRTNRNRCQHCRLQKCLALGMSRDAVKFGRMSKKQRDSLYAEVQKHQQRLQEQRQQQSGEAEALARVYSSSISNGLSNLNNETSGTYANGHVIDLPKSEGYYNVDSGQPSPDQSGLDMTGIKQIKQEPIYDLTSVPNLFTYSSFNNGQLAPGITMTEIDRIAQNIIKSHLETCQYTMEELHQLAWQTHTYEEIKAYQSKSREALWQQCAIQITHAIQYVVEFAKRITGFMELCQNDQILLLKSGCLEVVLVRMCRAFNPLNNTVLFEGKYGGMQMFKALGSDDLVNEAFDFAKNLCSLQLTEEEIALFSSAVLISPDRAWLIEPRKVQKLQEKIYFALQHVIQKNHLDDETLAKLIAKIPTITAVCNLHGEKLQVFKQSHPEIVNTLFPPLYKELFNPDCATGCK

[6] = target: T3, Nuclear receptor subfamily 1 group I member 2 (Homo sapiens, UniProt O75469); experiment: Activation of PXR (unknown origin) at 5 uM; format: ADME
T3 sequence (O75469 whole entry): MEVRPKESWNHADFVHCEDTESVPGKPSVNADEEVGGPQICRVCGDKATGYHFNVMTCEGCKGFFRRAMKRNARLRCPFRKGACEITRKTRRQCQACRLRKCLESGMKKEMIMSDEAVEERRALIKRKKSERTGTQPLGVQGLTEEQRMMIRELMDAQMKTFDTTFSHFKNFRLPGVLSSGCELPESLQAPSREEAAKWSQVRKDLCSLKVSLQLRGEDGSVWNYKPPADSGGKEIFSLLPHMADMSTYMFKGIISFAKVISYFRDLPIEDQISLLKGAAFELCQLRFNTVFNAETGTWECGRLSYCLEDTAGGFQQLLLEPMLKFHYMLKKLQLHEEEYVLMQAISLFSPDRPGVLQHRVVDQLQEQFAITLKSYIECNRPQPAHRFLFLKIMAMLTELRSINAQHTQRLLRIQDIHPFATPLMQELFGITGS

[7] = Cmax in rat at 5 mg/kg, po; format: ADME, organism-based; design: dose 5 mg/kg, route oral; details: in vivo
[8] = AUC in rat at 5 mg/kg, po; format: ADME, organism-based; details: in vivo
[9] = Oral bioavailability in rat at 1 mg/kg; format: ADME, organism-based; details: in vivo
Cytochrome P450 2C9 = Cytochrome P450 2C9 (Homo sapiens, UniProt P11712); experiment: Inhibition of CYP2C9 (unknown origin); format: ADME
[10] = Clearance in rat at 1 mg/kg, iv; format: ADME, organism-based; details: in vivo
[11] = Volume of distribution in rat at 1 mg/kg, iv; format: ADME, organism-based; details: in vivo
[12] = Half life in rat at 1 mg/kg, iv; format: ADME, organism-based; details: in vivo
Cytochrome P450 2C19 = Cytochrome P450 2C19 (Homo sapiens, UniProt P33261); experiment: Inhibition of CYP2C19 (unknown origin); format: ADME
Sequence of Cytochrome P450 2C19 (P33261 whole entry): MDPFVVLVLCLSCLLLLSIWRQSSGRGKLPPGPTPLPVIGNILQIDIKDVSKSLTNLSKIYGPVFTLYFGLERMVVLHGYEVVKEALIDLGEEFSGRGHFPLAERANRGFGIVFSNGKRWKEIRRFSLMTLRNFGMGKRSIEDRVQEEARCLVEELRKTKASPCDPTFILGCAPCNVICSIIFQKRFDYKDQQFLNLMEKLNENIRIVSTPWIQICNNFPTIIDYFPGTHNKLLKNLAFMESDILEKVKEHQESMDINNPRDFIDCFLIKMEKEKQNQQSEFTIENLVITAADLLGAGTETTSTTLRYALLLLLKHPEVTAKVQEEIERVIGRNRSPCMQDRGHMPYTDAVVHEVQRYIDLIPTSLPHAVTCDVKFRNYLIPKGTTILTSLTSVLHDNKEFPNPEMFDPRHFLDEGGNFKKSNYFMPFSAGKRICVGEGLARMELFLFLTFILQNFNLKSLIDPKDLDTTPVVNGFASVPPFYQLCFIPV

Sequence of Cytochrome P450 2C9 (P11712 whole entry): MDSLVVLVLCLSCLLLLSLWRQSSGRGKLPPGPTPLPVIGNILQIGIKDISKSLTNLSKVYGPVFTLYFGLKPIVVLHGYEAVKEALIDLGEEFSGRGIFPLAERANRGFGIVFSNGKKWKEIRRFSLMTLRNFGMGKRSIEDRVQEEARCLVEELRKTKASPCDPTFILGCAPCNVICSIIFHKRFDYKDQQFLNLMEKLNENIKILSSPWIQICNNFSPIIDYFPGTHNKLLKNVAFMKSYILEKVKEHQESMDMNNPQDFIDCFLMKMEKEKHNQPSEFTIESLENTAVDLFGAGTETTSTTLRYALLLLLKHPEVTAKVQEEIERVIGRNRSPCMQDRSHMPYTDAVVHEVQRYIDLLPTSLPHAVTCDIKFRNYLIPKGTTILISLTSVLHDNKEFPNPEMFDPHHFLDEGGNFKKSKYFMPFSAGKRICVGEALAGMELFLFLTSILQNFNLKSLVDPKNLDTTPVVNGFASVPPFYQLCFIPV

Structure (SMILES) | solubility [1] [µM] | solubility [2] [µM] | IC50 [3] [nM] | also measured
COC(C)(C)Cc1nc(-c2nnc(CC(C)(C)C(=O)O)o2)sc1-c1ccc(S(=O)(=O)N[C@@H](C)C(F)(F)F)c(F)c1C(F)F | < 4 | 363 (≈ 239 µg/mL) | 9000 | 
CC[C@H](NS(=O)(=O)c1ccc(-c2sc(-c3nnc(CC(C)(C)O)o3)nc2C(=O)N2CCC(F)CC2)c(Cl)c1Cl)C(F)(F)F | 41 (≈ 28.2 µg/mL) | 99 (≈ 68.2 µg/mL) | 120 | 
C[C@H](NS(=O)(=O)c1ccc(-c2sc(C(=O)NCC(C)(C)O)nc2CC2CCC2)c(Cl)c1Cl)C(F)(F)F |  |  |  | half-life [4]: 0.617 h
C[C@H](NS(=O)(=O)c1ccc(-c2sc(-c3nnc(CC(C)(C)C(=O)O)o3)nc2Cc2ccc(F)cc2)c(C(F)F)c1F)C(F)(F)F | < 4 | 57 (≈ 38.8 µg/mL) |  | 
C[C@H](NS(=O)(=O)c1ccc(-c2sc(-c3nnc([C@H]4C[C@H](C(=O)O)C4)o3)nc2CC2CCC2)c(Cl)c1Cl)C(F)(F)F | < 4 | 118 (≈ 75.5 µg/mL) |  | 
C[C@H](NS(=O)(=O)c1ccc(-c2sc(-c3nnc(CC(C)(C)C(=O)O)o3)nc2CN2CCCC(F)(F)C2)c(C(F)F)c1F)C(F)(F)F | 54 (≈ 38.1 µg/mL) | 182 (≈ 128 µg/mL) | 448 | 
C[C@H](NS(=O)(=O)c1ccc(-c2sc(-c3noc(CC(C)(C)C(=O)O)n3)nc2CC2CCC2)c(Cl)c1Cl)C(F)(F)F | < 4 | 38 (≈ 24.4 µg/mL) | 790 | 
CCN(CC)C(=O)c1nc(-c2nnc(C(C)(C)O)o2)sc1-c1ccc(S(=O)(=O)N[C@@H](C)C(F)(F)F)c(Cl)c1Cl |  | 55 (≈ 34.7 µg/mL) | 100 | half-life [4]: 1.58 h; Kd [5]: > 60000 nM
C[C@H](NS(=O)(=O)c1ccc(-c2sc(CC(C)(C)C(=O)O)nc2CC2CCC2)c(C(F)(F)F)c1)C(F)(F)F |  |  |  | Activity [6]: 43%
CC(C)(C)NS(=O)(=O)c1ccc(-c2sc(C(=O)N[C@H]3C[C@H](C(=O)O)C3)nc2CC2CCCCC2)c2ccccc12 | < 1 | < 1 |  | Cmax [7]: 220 nM; AUC [8]: 302 ng·h/mL; bioavailability [9]: 20%
C[C@H](NS(=O)(=O)c1ccc(-c2sc(-c3nnc(CC(C)(C)C(=O)O)s3)nc2CC2CCC2)c(Cl)c1Cl)C(F)(F)F |  |  |  | IC50 (Cytochrome P450 2C9): 900 nM
C[C@H](NS(=O)(=O)c1ccc(-c2sc(-c3cnc(CC(C)(C)C(=O)O)s3)nc2CC2CCC2)c(Cl)c1Cl)C(F)(F)F | < 4 | < 4 |  | 
C[C@H](NS(=O)(=O)c1ccc(-c2sc(-c3nnc(C(C)(C)O)o3)nc2C(=O)N2CCC(F)CC2)c(Cl)c1Cl)C(F)(F)F |  | 165 (≈ 109 µg/mL) |  | Kd [5]: > 50000 nM
CC(C)(C)NS(=O)(=O)c1ccc(-c2sc(-c3nnc(C(C)(C)O)o3)nc2CC2CCCCC2)c2ccccc12 | < 1 | < 1 |  | 
CC[C@H](NS(=O)(=O)c1ccc(-c2sc(-c3nnc(CC(C)(C)C(=O)O)o3)nc2CC2CCCC2)c(C(F)F)c1F)C(F)(F)F | < 4 | 69 (≈ 46.1 µg/mL) | 230 | 
C[C@H](NS(=O)(=O)c1ccc(-c2sc(-c3nnc(CC(C)(C)C(=O)O)o3)nc2C(=O)N2CCCC[C@@H]2C)c(C(F)F)c1F)C(F)(F)F | < 4 | 398 (≈ 278 µg/mL) |  | 
CC[C@H](NS(=O)(=O)c1ccc(-c2sc(CC(C)(C)C(=O)O)nc2CC2CCC2)c(Cl)c1Cl)C(F)(F)F | < 4 | 178 (≈ 105 µg/mL) |  | Activity [6]: 40%
CC(C)(O)CNC(=O)c1nc(CC2CCCCC2)c(-c2ccc(S(=O)(=O)NC(C)(C)C)c3ccccc23)s1 | < 4 | < 4 |  | 
CC[C@H](NS(=O)(=O)c1ccc(-c2sc(CC(C)(C)C(=O)O)nc2CC2CCC2)c(Cl)c1)C(F)(F)F |  |  |  | Activity [6]: 2%
C[C@H](NS(=O)(=O)c1ccc(-c2sc(-c3nnc(CC(C)(C)C(=O)O)o3)nc2CC2CCC2)c2ccccc12)C(F)(F)F | < 4 | 24 (≈ 14.9 µg/mL) |  | Cmax [7]: 2300 nM; AUC [8]: 13100 ng·h/mL; clearance [10]: 6 mL/min/kg; Vd [11]: 1.1 L/kg; half-life [12]: 3.1 h; bioavailability [9]: 96%; half-life [4]: > 3 h
C[C@H](NS(=O)(=O)c1ccc(-c2sc(-c3cc(CC(C)(C)C(=O)O)on3)nc2CC2CCC2)c(Cl)c1Cl)C(F)(F)F | < 4 | < 4 |  | 
C[C@H](NS(=O)(=O)c1ccc(-c2sc(CC(C)(C)C(=O)O)nc2CC2CCC2)c(Cl)c1Cl)C(F)(F)F | < 4 | 268 (≈ 154 µg/mL) | 1870 | Activity [6]: 33%
C[C@H](NS(=O)(=O)c1ccc(-c2sc(-c3noc(C(C)(C)O)n3)nc2C(=O)N2CCC(F)CC2)c(Cl)c1Cl)C(F)(F)F | 9.7 (≈ 6.41 µg/mL) | 6.4 (≈ 4.23 µg/mL) |  | Kd [5]: > 91000 nM
CC[C@H](NS(=O)(=O)c1ccc(-c2sc(-c3nnc(CC(C)(C)C(=O)O)o3)nc2CC2CCCCC2)c(C(F)F)c1F)C(F)(F)F | < 4 | < 4 | 1540 | 
C[C@H](NS(=O)(=O)c1ccc(-c2sc(-c3cc(CC(C)(C)C(=O)O)ncn3)nc2CC2CCC2)c(Cl)c1Cl)C(F)(F)F |  |  |  | IC50 (Cytochrome P450 2C19): 790 nM
